The record followed here is patent publication US20230373934A1, “ANDROGEN RECEPTOR MODULATORS AND METHODS FOR THEIR USE” (ESSA Pharma, Inc., priority 2022, published 2023).

Assay [1] deals with T1, androgen receptor (AR) (Homo sapiens, UniProt P10275, T878A).
T1 construct: endogenous in cells; host or cells: LNCaP
T1 sequence (P10275 1-920 T878A): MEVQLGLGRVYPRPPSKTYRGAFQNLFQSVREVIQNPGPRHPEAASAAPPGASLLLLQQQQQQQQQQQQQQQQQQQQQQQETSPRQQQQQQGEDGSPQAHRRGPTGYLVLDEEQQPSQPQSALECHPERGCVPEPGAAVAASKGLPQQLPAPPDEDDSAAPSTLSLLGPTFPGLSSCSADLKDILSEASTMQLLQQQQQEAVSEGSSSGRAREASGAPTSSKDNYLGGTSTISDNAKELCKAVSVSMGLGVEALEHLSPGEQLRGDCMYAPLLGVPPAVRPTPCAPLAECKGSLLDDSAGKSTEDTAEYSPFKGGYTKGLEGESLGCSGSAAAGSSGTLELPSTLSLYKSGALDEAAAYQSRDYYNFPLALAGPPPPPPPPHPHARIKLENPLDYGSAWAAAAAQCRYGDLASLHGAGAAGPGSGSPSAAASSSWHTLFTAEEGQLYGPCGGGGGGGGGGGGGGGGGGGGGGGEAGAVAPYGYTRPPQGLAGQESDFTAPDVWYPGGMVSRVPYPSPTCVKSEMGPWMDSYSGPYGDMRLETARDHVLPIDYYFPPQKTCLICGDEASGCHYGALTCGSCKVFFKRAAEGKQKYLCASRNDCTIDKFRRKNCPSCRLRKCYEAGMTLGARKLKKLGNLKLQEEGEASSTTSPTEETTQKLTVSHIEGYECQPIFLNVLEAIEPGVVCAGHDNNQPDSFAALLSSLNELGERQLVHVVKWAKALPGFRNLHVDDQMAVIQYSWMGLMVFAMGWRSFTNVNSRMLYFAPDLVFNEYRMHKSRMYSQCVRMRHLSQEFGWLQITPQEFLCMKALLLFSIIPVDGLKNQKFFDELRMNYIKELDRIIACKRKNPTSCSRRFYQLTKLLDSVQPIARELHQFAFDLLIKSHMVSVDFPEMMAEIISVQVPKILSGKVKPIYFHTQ
The assay can be described thus: Androgen-induced PSA-luciferase assay, Luciferase Assay A (LNCaP transiently transfected with PSA (6.1 kb)-luciferase reporter). It counts as cell-based. Particulars: LNCaP cells, 1 h pretreatment, R1881 (1 nM) 24 h, read-out: PSA-Luc IC50 Range. The method, boiled down:
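LNCaP cells transfected 24 h with PSA (6.1 kb)-luciferase reporter, pretreated 1 h with compound, then stimulated 24 h with R1881 (1 nM). Firefly luminescence in lysates normalized to protein content; IC50 from activity relative to R1881-induced vehicle control.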
(A reporter such as luciferase makes a cellular process visible.)

Assay [2] deals with T2, androgen receptor (AR) (Homo sapiens, UniProt P10275).
T2 sequence (P10275 1-920 T878A): T1 sequence (P10275 1-920 T878A)
Put plainly: Androgen-induced PSA-luciferase assay, Luciferase Assay B (cells stably expressing ARR2PB or PSA-firefly luciferase reporter, 384-well). It is filed as cell-based. Particulars: Luciferase Assay B (Compounds A186-A219 and A221-A245); stable luciferase reporter cells, 1 h pretreatment, R1881 24 h, serum-free; read-out: PSA-Luc IC50 Range. The procedure:
Luciferase Assay B: Cells stably expressing probasin promoter (ARR2PB) or human prostate-specific antigen (PSA)-firefly luciferase reporter were plated in poly-D-lysine-coated 384-well plates. 48 h after plating, cells were pretreated with vehicle or compounds for 1 h before adding R1881 under serum-free and phenol red-free conditions and then further incubated for 24 h. R1881 was added only for LNCaP cells. Firefly luciferase activities were determined by EnVision plate reader (Perkinemer) using the Steady-Glo Luciferase Reporter Assay System (Promega). Values were normalized to protein content. GraphPad Prism graphing software was used to calculate IC50 values. Luciferase Assay B was run for Compounds A186-A219 and A221-A245 in Table 2.
Statistical analyses were performed using GraphPad Prism (Version 6.01 for Windows; La Jolla, CA, USA). Comparisons between treatment and control groups were compared using Two-Way ANOVA with post-hoc Dunnett's and Tukey's tests. Differences were considered statistically significant at P values less than 0.05.

Bounds are passed on as bounds.

The IC50 is the concentration that inhibits the measured activity by half. For the compound `CC(C)(c1ccc(OCc2ccnc(NS(C)(=O)=O)n2)cc1)c1cc(Cl)c(OCCNS(C)(=O)=O)c(C#N)c1` [Compound A183], the 50% inhibitory concentration (IC50) in assay [1] was over 2000 nM. As for `CC(C)(c1ccc(OCc2ccnc(NS(C)(=O)=O)n2)cc1)c1cc(Cl)c(OCCN2CCNCC2)c(C#N)c1` [Compound A184], the IC50 in assay [1] was over 2000 nM. Regarding `CS(=O)(=O)Nc1nccc(COc2ccc(Cc3cc(Cl)c(OCCCl)c(C#N)c3)cc2)n1` [Compound A185], the IC50 in assay [1] is over 2000 nM.

Take `CCCOc1c(Cl)cc(Oc2ccc(-c3ccc4nc(NS(C)(=O)=O)cnc4c3)cc2)cc1C#N` [Compound A188]: in assay [2], the IC50 was in the range of 500 to 2000 nM. Regarding `CS(=O)(=O)Nc1cnc2cc(-c3ccc(Oc4cc(Cl)c(OCCC(F)(F)F)c(C#N)c4)cc3)ccc2n1` [Compound A189], the half-inhibitory concentration (IC50) in assay [2] is 500 to 2000 nM. Turning to `CS(=O)(=O)Nc1cc2ccc(-c3ccc(Oc4cc(Cl)c(OC5CC5)c(C#N)c4)cc3)cc2nn1` [Compound A192], the IC50 in assay [2] is under 500 nM. As for `CS(=O)(=O)Nc1cnc2ccc(-c3ccc(Oc4cc(Cl)c(OC5CC5)c(C#N)c4)cc3)cc2n1` [Compound A193], the half-maximal inhibitory concentration (IC50) in assay [2] lay in the range of 500 to 2000 nM. The same measure, in the same setting: under `N#Cc1cc(Oc2ccc(-c3ccc4nc(N)cnc4c3)cc2)cc(Cl)c1OC1CC1` [Compound A194] stands over 2000 nM; under `CN(c1cnc2cc(-c3ccc(Oc4cc(Cl)c(OC5CC5)c(C#N)c4)cc3)ccc2n1)S(C)(=O)=O` [Compound A195], 500 to 2000 nM.

`CS(=O)(=O)Nc1ncc(-c2ccc(Oc3cc(Cl)c(OC4CC4)c(C#N)c3)cc2)cn1` [Compound A196]: the IC50 in assay [2] was 500 to 2000 nM. Consider `CC(C)(c1ccc(-c2cnc(NS(C)(=O)=O)nc2)cc1)c1cc(Cl)c(OC2CC2)c(C#N)c1` [Compound A197], for which the IC50 in assay [2] was 500 to 2000 nM. For the compound `CNc1cnc2cc(-c3ccc(Oc4cc(Cl)c(OC5CC5)c(C#N)c4)cc3)ccc2n1` [Compound A200], in assay [2], the IC50 was over 2000 nM. `CC(C)(c1ccc(OCc2ccnc(N3CCOCC3)n2)cc1)c1cc(Cl)c(OC2CC2)c(C#N)c1` [Compound A201, 3-chloro-2-cyclopropoxy-5-(2-(4-((2-morpholinopyrimidin-4-yl)methoxy)phenyl)propan-2-yl)benzonitrile]: in assay [2], the IC50 fell in the range of 500 to 2000 nM. In the case of `N#Cc1cc(Oc2ccc(-c3ccc4nc(N5CCOCC5)cnc4c3)cc2)cc(Cl)c1OC1CC1` [Compound A204], the IC50 in assay [2] was over 2000 nM. Turning to `N#Cc1cc(Oc2ccc(-c3ccc4nc(N5CCS(=O)(=O)CC5)cnc4c3)cc2)cc(Cl)c1OC1CC1` [Compound A206], in assay [2], the IC50 was 500 to 2000 nM. With `CS(=O)(=O)NCc1cnc2cc(-c3ccc(Oc4cc(Cl)c(OC5CC5)c(C#N)c4)cc3)ccc2n1` [Compound A207, N-((6-(4-(3-chloro-5-cyano-4-cyclopropoxyphenoxy)phenyl)quinoxalin-2-yl)methyl)methanesulfonamide], the concentration for half-maximal inhibition (IC50) in assay [2] lay within 500 to 2000 nM. On to `Cn1nc(NS(C)(=O)=O)c2ccc(-c3ccc(Oc4cc(Cl)c(OC5CC5)c(C#N)c4)cc3)cc21` [Compound A209], for which the IC50 in assay [2] was over 2000 nM. The same measure, in the same setting: then `Cn1nc(NS(C)(=O)=O)c2cc(-c3ccc(Oc4cc(Cl)c(OC5CC5)c(C#N)c4)cc3)ccc21` [Compound A210], with 500 to 2000 nM; and `CS(=O)(=O)Nc1cc(=O)n2cc(-c3ccc(Oc4cc(Cl)c(OC5CC5)c(C#N)c4)cc3)ccc2n1` [Compound A211], with over 2000 nM; and `CS(=O)(=O)NCc1ccc(-c2ccc(Oc3cc(Cl)c(OC4CC4)c(C#N)c3)cc2)cn1` [Compound A212], with 500 to 2000 nM. For the compound `CS(=O)(=O)NCc1cnc(-c2ccc(Oc3cc(Cl)c(OC4CC4)c(C#N)c3)cc2)cn1` [Compound A213], in assay [2], the IC50 was 500 to 2000 nM. Still for that read-out and setting: under `CS(=O)(=O)NCc1ccc(-c2ccc(Oc3cc(Cl)c(OC4CC4)c(C#N)c3)cc2)nn1` [Compound A214] stands 500 to 2000 nM; under `N#Cc1cc(Oc2ccc(-c3ccc4nc(NC5CCS(=O)(=O)CC5)cnc4c3)cc2)cc(Cl)c1OC1CC1` [Compound A215], 500 to 2000 nM; under `N#Cc1cc(Oc2ccc(-c3ccc4nc(NC5CS(=O)(=O)C5)cnc4c3)cc2)cc(Cl)c1OC1CC1` [Compound A216], over 2000 nM. With `CS(=O)(=O)Nc1cnc2cc(-c3ccc(Oc4cnc(OC5CC5)c(C#N)c4)cc3)ccc2n1` [Compound A217], the IC50 in assay [2] was over 2000 nM. On the same count and under the same terms, then `CS(=O)(=O)Nc1cnc2cc(-c3ccc(Oc4cnc(OC5CC5)c(Cl)c4)cc3)ccc2n1` [Compound A218], with 500 to 2000 nM; and `CS(=O)(=O)Nc1ccc2nc(-c3ccc(Oc4cc(Cl)c(OC5CC5)c(C#N)c4)cc3)cnc2n1` [Compound A219], with 500 to 2000 nM. For `CS(=O)(=O)NCc1nccc(COc2ccc(N(CC(F)(F)F)c3cc(Cl)c(OC4CC4)c(C#N)c3)cc2)n1` [Compound A221], the IC50 in assay [2] was under 500 nM.

Consider `CS(=O)(=O)Nc1cnc2cc(-c3ccc(N(CC(F)F)c4cc(Cl)c(OC5CC5)c(C#N)c4)cc3)ccc2n1` [Compound A222], for which the IC50 in assay [2] is under 500 nM. Same read-out and setting: under `CS(=O)(=O)Nc1nccc(COc2ccc(N(CC(F)(F)F)c3cc(Cl)c(N4CCOCC4)c(C#N)c3)cc2)n1` [Compound A223] stands under 500 nM; under `CS(=O)(=O)Nc1cnc2cc(-c3ccc(N(CC(F)(F)F)c4cc(Cl)c(N5CCOCC5)c(C#N)c4)cc3)ccc2n1` [Compound A224, N-(6-(4-((3-chloro-5-cyano-4-morpholinophenyl)(2,2,2-trifluoroethyl)amino)phenyl)quinoxalin-2-yl)methanesulfonamide], under 500 nM.

Consider `CS(=O)(=O)Nc1cc2cnn(Cc3ccc(Oc4cc(Cl)c(OC5CC5)c(C#N)c4)cc3)c2cn1` [Compound A225], for which the IC50 in assay [2] is 500 to 2000 nM.

As to `CS(=O)(=O)Nc1cnc2cc(-c3ccc(Nc4cc(Cl)c(OC5CC5)c(C#N)c4)cc3)ccc2n1` [Compound A226], in assay [2], the IC50 lay in the range of 500 to 2000 nM. On the same count and under the same terms, under `CS(=O)(=O)Nc1cc2cn(Cc3ccc(Oc4cc(Cl)c(OC5CC5)c(C#N)c4)cc3)nc2cn1` [Compound A227] stands 500 to 2000 nM. With `CS(=O)(=O)NC12CC(COc3ccc(Oc4cc(Cl)c(OC5CC5)c(C#N)c4)cc3)(C1)C2` [Compound A228, N-(3-((4-(3-chloro-5-cyano-4-cyclopropoxyphenoxy)phenoxy)methyl)bicyclo[1.1.1]pentan-1-yl)methanesulfonamide], the concentration for half-maximal inhibition (IC50) in assay [2] was over 2000 nM. Still for that read-out and setting: then `CS(=O)(=O)Nc1cncc(N2CCN(c3ccc(Oc4cc(Cl)c(OC5CC5)c(C#N)c4)cc3)CC2)n1` [Compound A229], with over 2000 nM. The same measure, in the same setting: then `CS(=O)(=O)Nc1nccc(N2CCN(c3ccc(Oc4cc(Cl)c(OC5CC5)c(C#N)c4)cc3)CC2)n1` [Compound A230], with under 500 nM. The same measure, in the same setting: under `CS(=O)(=O)Nc1cc2n(n1)CCN(c1ccc(Oc3cc(Cl)c(OC4CC4)c(C#N)c3)cc1)C2` [Compound A231] stands over 2000 nM; under `CS(=O)(=O)Nc1cncc(N2CC(c3ccc(Oc4cc(Cl)c(OC5CC5)c(C#N)c4)cc3)C2)n1` [Compound A232], 500 to 2000 nM; under `CS(=O)(=O)Nc1cnc2cc(-c3ccc(N(CC(F)(F)F)c4cnc(N5CCOCC5)c(C#N)c4)cc3)ccc2n1` [Compound A233], 500 to 2000 nM. Regarding `CS(=O)(=O)NC12CC(COc3ccc(N(CC(F)(F)F)c4cnc(OC5CC5)c(C#N)c4)cc3)(C1)C2` [Compound A234], in assay [2], the IC50 was in the range of 500 to 2000 nM. For `CS(=O)(=O)NC12CC(COc3ccc(N(CC(F)(F)F)c4cnc(NC5CC5)c(C#N)c4)cc3)(C1)C2` [Compound A235], the IC50 in assay [2] was over 2000 nM. Same read-out and setting: then `CS(=O)(=O)NC12CC(COc3ccc(N(CC(F)(F)F)c4cc(Cl)c(OC5CC5)c(C#N)c4)cc3)(C1)C2` [Compound A236, N-(3-((4-((3-chloro-5-cyano-4-cyclopropoxyphenyl)(2,2,2-trifluoroethyl)amino)phenoxy)methyl)bicyclo[1.1.1]pentan-1-yl)methanesulfonamide], with under 500 nM.
